Test results taken from patent US11465987B2, “Compounds for treatment of cancer” (ONCTERNAL THERAPEUTICS, INC., priority 2012, dated 2022).
Like-named read-outs stand apart in the source and are kept apart here.

How the values were obtained:
[1] = test system: B16-F1 mouse melanoma cell line; experiment: Cytotoxicity (SRB) assay, B16-F1; type: cell-based; conditions: Mus musculus, B16-F1, SRB assay, mouse melanoma B16-F1; read-out: IC50 B16-F1
[2] = test system: DU 145 human prostate cancer cell line; experiment: Cytotoxicity (SRB) assay, DU 145; type: cell-based; conditions: Homo sapiens, DU-145, SRB assay, prostate cancer DU 145; read-out: IC50 DU 145
From the text: (§1) Cells were stained with SRB solution.

[3] = test system: A375 human melanoma cell line; experiment: Cytotoxicity (SRB) assay, A375; type: cell-based; conditions: Homo sapiens, A-375, SRB assay, human melanoma A375; read-out: IC50 A375
[4] = test system: LNCaP human prostate cancer cell line; experiment: Cytotoxicity (SRB) assay, LNCaP; type: cell-based; conditions: Homo sapiens, LNCaP, SRB assay, prostate cancer LNCaP; read-out: IC50 LNCaP
From the text: as §1

[5] = test system: PPC-1 human prostate cancer cell line; experiment: Cytotoxicity (SRB) assay, PPC-1; type: cell-based; conditions: Homo sapiens, PPC-1, SRB assay, prostate cancer PPC-1; read-out: IC50 PPC-1
From the text: as §1

[6] = Pharmacokinetic study in Sprague-Dawley rats; conditions: rat
[7] = test system: melanoma and prostate cancer cell lines; experiment: Antiproliferative activity summarised over the cell line panel (range or average); type: cell-based; conditions: read-out: IC50 (range over tested cell lines)
[8] = test system: PC-3 human prostate cancer cell line; experiment: cells; conditions: Homo sapiens
From the text: as §1

[9] = Aqueous solubility, Multiscreen Solubility Filter Plate, PBS pH 7.4
PC-3 cells [10] = experiment: Cell cycle analysis (PI staining, FACS), PC-3; type: cell-based; conditions: Homo sapiens, read-out: G2M phase arrest EC50
Protocol: Cell cycle distribution was determined by propidium iodide (PI) staining. Treated cells were washed with PBS and fixed with 70% ice-cold ethanol overnight. Fixed cells were then stained with 20 μg/mL of PI in the presence of RNase A (300 μg/mL) at 37° C. for 30 min. Cell cycle distribution was analyzed by fluorescence-activated cell sorting (FACS) analysis core services at the University of Tennessee Health Science Center, TN.
Flow cytometry was performed to study the effects of the compounds on cell cycle distribution. […] Cellular DNA was stained with 100 μg/mL propidium iodide and 100 μg/mL RNase A in PBS and flow cytometry was performed to determine the cell cycle distribution of the cells.

[11] = Pharmacokinetic study in ICR mice; conditions: mice, 15 mg/kg i.v.
Bovine brain tubulin = experiment: In vitro tubulin polymerization assay (bovine brain tubulin); type: biochemical; conditions: 10 μM
Protocol: The spectrophotometer was maintained at 37° C. for tubulin polymerization.

PC-3 xenograft = experiment: In vivo PC-3 prostate tumor xenograft; conditions: for tumor volume at day 21: control 680 mm^3; for mice that lost more than 15% body weight: PC-3 xenograft, 15 mg/kg i.p.
[12] = test system: A375 human melanoma xenograft; experiment: In vivo A375 human melanoma xenograft; conditions: Melanoma (A375) xenograft, 15 mg/kg i.p.
in vivo = conditions: male, ICR, mouse, plasma, iv, 15 mg/kg
[13] = test system: NCI/ADR-RES (P-gp over-expressing resistant line of OVCAR-8); experiment: Cytotoxicity (SRB) assay, NCI/ADR-RES; type: cell-based, human; conditions: NCI/ADR-RES versus OVCAR-8
PC-3 cells [14] = experiment: Apoptosis detection by ELISA (cytoplasmic DNA-histone complexes), PC-3; type: cell-based, human; conditions: PC-3 and A375 cells, 24 h
From the text: Quantification of the Enrichment of Mono- and oligonucleosomes in the cytoplasm was used to determine the ability of the compounds to induce apoptosis (cell death detection ELISA PLUS, Roche, Germany) following the manufacturer's instructions.

[15] = test system: tubulin (colchicine, vinblastine and paclitaxel binding sites); experiment: MS competition binding assay; conditions: competitive mass binding assay
From the text: Each reaction was run in triplicate.

[16] = Rotarod test (in vivo neurotoxicity); parameters: species or system mouse; conditions: ICR mice, i.p. daily; 1h 5 or 15 mg/kg, vinblastine 0.5 mg/kg
Protocol: ICR mice received training three times a day for two days to enable them to stay on the rotating rod for >120 seconds at 12 rpm. Mice were then randomized by the length of time that they could stay on the rotating rod and divided into 7-8 mice per group. […] The rotarod test was performed twice a week. […] The rod speed was increased from […] to 40 rpm over a period of 5 min. Performance was measured as the length of time that a mouse could stay on the rotating rod.

[17] = test system: T1, tubulin colchicine binding site; experiment: [3H]-colchicine competition-binding scintillation proximity assay; conditions: SPA, 0.03-100 μM
T1 construct: […]

WM-164 melanoma cells = experiment: Microtubule imaging (immunofluorescence); type: cell-based, human; conditions: WM-164 cells, 18 h
From the text: Primary antibody for tubulin and fluorescence-labeled secondary antibody were subsequently added to the cells. Cell nuclei were stained by DAPI. Whole Cell Stain Green was also applied to all cells. All images were acquired with an Olympus IX71 inverted fluorescence microscope (Olympus Corp., Tokyo, Japan) with overlays from separate images of tubulin (red), nuclei (blue), and whole cells (green).

[18] = test system: HUVEC (Human Umbilical Vein Endothelial Cells); experiment: Endothelial cell growth inhibition (SRB); type: cell-based; conditions: HUVEC vs prostate cancer cells
[19] = test system: HUVEC capillary tube formation on Matrigel; experiment: Capillary formation assay; type: cell-based, human; conditions: at toxic concentration
[20] = test system: confluent HUVEC monolayers; experiment: Endothelial monolayer permeability assay; conditions: FITC-dextran leakage, 1, 2, 4 h
[21] = IV, 1h and 2r […], 5Ha and 5Hc 5 mg/kg
[22] = read-out: IC50 PC-3, SRB assay, prostate cancer PC-3
[23] = read-out: IC50 ± SEM, PC-3, Table 21, n = 3

## COc1cc(C(=O)c2csc(-c3ccc(CN)cc3)n2)cc(OC)c1OC.Cl [2r, (2-(4-(Aminomethyl)phenyl)thiazol-4-yl)(3,4,5-trimethoxyphenyl)methanone hydrochloride]
[1]
  IC50: 38 ± 11 nM
[2]
  IC50: 25 nM
[3]
  IC50: 41 ± 13 nM
[4]
  IC50: 13 nM
[5]
  IC50: 34 nM
[6]
  F, percent oral bioavailability: 0.2%
[6]; [21]
  CL, systemic clearance: 22 ± 13 mL/min/kg
  Vss, volume of distribution following intravenous dosing: 0.33 ± 0.25 L/kg
[6]; PO, 1h, 5Ha, 5Hc 10 mg/kg, 2r 4 mg/kg
  Cmax, PO: 3794 ± 1580 ng/mL
[7]
  IC50: 13 to 80 nM
[8]; [22]
  IC50: 80 nM
[9]; HCl salt, PBS
  increase of solubility: over 35 fold
[9]; PBS pH 7.4
  aqueous solubility in PBS: over 35 μg/mL

## COc1cc(-c2nccc3ccc(-c4ccc5[nH]ccc5c4)cc23)cc(OC)c1OC [6a]
PC-3 cells [10]
  EC50: 53.4 nM
[8]; read-out: IC50, PC-3, Table 7
  IC50: 64.4 ± 12.2 nM

## COc1cc(C(=O)c2csc(-c3ccc(F)cc3)n2)cc(OC)c1OC [2k]
ICR mice, 4 consecutive days of intraperitoneal dosing
  dose not causing greater than 10% loss of body weight: ≤ 15 mg/kg
[11]
  AUC: 2200 ng·h/mL
Bovine brain tubulin; absorbance 340 nm over 15 min
  inhibition of tubulin polymerization: 90%
PC-3 xenograft; PC-3, 5 mg/kg i.p.
  % T/C: 21%
PC-3 xenograft; PC-3, 5 mg/kg i.p. daily
  tumor volume at day 21: 269 mm^3
PC-3 xenograft; PC-3, 15 mg/kg i.p.
  % T/C: 24%
PC-3 xenograft; PC-3, 15 mg/kg i.p. daily
  tumor volume at day 21: 292 mm^3
PC-3 xenograft
  mice that lost more than 15% body weight: 2 out of 7
[12]
  % T/C: 28%
  T-C: 11 days

## COc1cc(C(=O)c2csc(-c3ccc(O)cc3)n2)cc(OC)c1OC [2l, (2-(4-Hydroxyphenyl)thiazol-4-yl)(3,4,5-trimethoxyphenyl)methanone]
In vivo
  AUC: 2600 ng·h/mL
  Vd: 16.5 L/kg
  clearance: 90 mL/min/kg
  half-life: 12.3 h
[13]
  Resistance factor: 0.4
PC-3 cells [14]
  concentration inducing apoptosis: greater than or equal to 200 nM
PC-3 xenograft; PC-3, 50 mg/kg i.p.
  % T/C: 34%
PC-3 xenograft; Prostate (PC-3) xenograft, 50 mg/kg i.p.
  % T/C: 34%
[7]
  IC50: 76 to 116 nM
[8]; [22]
  IC50: 87 nM
[8]; [23]
  IC50: 87 ± 5 nM

## COc1cc(C(=O)c2csc(-c3ccccc3)n2)cc(OC)c1OC [1h, (2-Phenyl-thiazol-4-yl)-(3,4,5-trimethoxy-phenyl)-methanone]
[15]
  competition for tubulin binding sites in words: specifically competed with colchicine binding to tubulin
[16]
  rotarod performance in words: no significant difference
ICR, mouse, in vivo, ip
  dose not causing greater than 10% loss of body weight: up to 30 mg/kg
Bovine brain tubulin; absorbance 340 nm over 15 min
  inhibition of tubulin polymerization: 90%
Bovine brain tubulin; after 20 min incubation, vs vehicle
  inhibition of tubulin polymerization: 47%
PC-3 xenograft; PC-3, 5 mg/kg i.p.
  % T/C: 29%
PC-3 xenograft; PC-3, 15 mg/kg i.p.
  % T/C: 4%
PC-3 xenograft
  mice that lost more than 15% body weight: 1 of 8
[8]; [22]
  IC50: 29.1 ± 1.1 nM
[8]; read-out: IC50 in PC3, Table 16B
  IC50: 21 nM
[8]; [23]
  IC50: 21 ± 1 nM

## CC(=O)O[C@H]1C(=O)[C@@]2(C)[C@H]([C@H](OC(=O)c3ccccc3)[C@]3(O)C[C@H](OC(=O)[C@H](O)[C@@H](NC(=O)c4ccccc4)c4ccccc4)C(C)=C1C3(C)C)[C@]1(OC(C)=O)CO[C@@H]1C[C@@H]2O [paclitaxel, reference compound]
[17]
  colchicine site binding in words: only a flat line
WM-164 melanoma cells
  effect on microtubules in words: condensation of microtubules

## COc1cc(C(=O)c2c[nH]c(-c3ccc(C)cc3)n2)cc(OC)c1OC [12da, (2-(p-tolyl)-1H-imidazol-4-yl)(3,4,5-trimethoxyphenyl)methanone]
[17]
  colchicine site binding in words: highest binding affinity
WM-164 melanoma cells
  effect on microtubules in words: microtubule fragmentation

## c1cc2ccc(-c3ccc4[nH]ccc4c3)cc2c(-c2ccc3[nH]ccc3c2)n1 [6b, 1,7-Bis-(1H-indol-5-yl)-isoquinoline]
PC-3 cells [10]
  EC50: 91.9 nM

## COc1cccc2c1C(=O)c1c(O)c3c(c(O)c1C2=O)C[C@@](O)(C(=O)CO)C[C@@H]3O[C@H]1C[C@H](N)[C@H](O)[C@H](C)O1 [doxorubicin]
[18]
  times more active against endothelial cells than against cancer cells: not specific to endothelial cells
[19]
  capillary construction in words: did not affect the capillary construction
[20]
  permeability of endothelial cell monolayer in words: did not induce any change
